Results reported in ChEMBL document CHEMBL1147235, “Isolation and structure determination of lyngbyastatin 3, a lyngbyastatin 1 homologue from the marine cyanobacterium Lyngbya majuscula. Determination of the configuration of the 4-amino-2,2-dimethyl-3-oxopentanoic acid unit in majusculamide C, dolastatin 12, lyngbyastatin 1, and lyngbyastatin 3 …” (J Nat Prod, 2003).
The source made the active and inactive calls. The calls are words filed in the database; no cut-off is given here. *1 amine or outer side, *2 acyl side, *3 side chain or, on linkers, in order; H or OH if unused. Where a SMILES comes first, the peptide text is derived from it. [ ]: non-standard residue; d: D form. X2 = CCC[C@@H](N[*:1])[C@H](C)C(=O)O[C@H](C(=O)[*:2])[C@H](C)CC; X1 = C[C@H](N[*:1])C(=O)C(C)(C)C(=O)[*:2]; NMeY = CN[C@@H](Cc1ccc(O)cc1)C(=O)O; NMeL = CN[C@@H](CC(C)C)C(=O)O; NMeV = CN[C@H](C(=O)O)C(C)C; NMeA = CN[C@@H](C)C(=O)O

How the values were obtained:
[1] = system: KB; test: Cytotoxicity against human KB cells; type: functional, cell-based
[2] = system: Mus musculus; test: Antitumor activity against mouse mammary adenocarcinoma 16/C cells implanted mouse; type: functional
[3] = system: MC-38; test: Antitumor activity against mouse colon 38 cells implanted mouse; type: functional, cell-based
[4] = system: LoVo; test: Cytotoxicity against human LoVo cells; type: functional, cell-based

CCC[C@H]1NC(=O)[C@H](C)N(C)C(=O)C(C)(C)C(=O)[C@H](C)NC(=O)[C@H](Cc2ccc(OC)cc2)N(C)C(=O)[C@H](C(C)C)N(C)C(=O)CNC(=O)[C@H](CC(C)C)N(C)C(=O)CNC(=O)[C@H]([C@H](C)CC)OC(=O)[C@H]1C [lyngbyastatin 3] (cyclo(G[NMeL]G[NMeV][NMeY](Me)[X1][NMeA][X2]))
IC50 [1]: 32 nM | Activity [2]: inactive | Activity [3]: inactive | IC50 [4]: 400 nM
